Molecules are shown by their SMILES.

A short description of series [1]: Cytotoxicity on NHDF cells in the anti-HCMV cytopathogenicity test. Conditions: human, NHDF cells (normal human dermal fibroblasts), 6 days incubation, visual evaluation. It counts as cell-based. The procedure:
(§1) The test compounds are used as 50 millimolar (mM) solutions in dimethyl sulfoxide (DMSO). The reference compounds used are ganciclovir, foscarnet and cidofovir. In each case 2 μl of the 50, 5, 0.5 and 0.05 mM DMSO stock solutions are added to in each case 98 μl of cell culture medium in row […] in duplicate, and 1:2 dilutions with in each case 50 μl of medium are then made up to row 11 of the 96-well plate. The wells in rows 1 and 12 each contain 50 μl of medium. In each case 150 μl of a suspension of 1×10^4 cells (NHDF=normal human dermal fibroblasts) (row 1 =cell control) and, for rows 2-12, a mixture of HCMV-infected and non-infected NHDF cells (M.O.I.=0.001-0.002), i.e. 1-2 infected cells per 1000 non-infected cells, are then pipetted into the wells. Row 12 (without substance) serves as virus control. The final test concentrations are 250-0.0005 μM. The plates are incubated at 37° C./5% CO2 for 6 days, i.e. until all cells in the virus controls are infected (100% cytopathogenic effect [CPE]). The wells are then fixed by adding a mixture of formalin and Giemsa's dye and stained (30 minutes), washed with doubly distilled water and dried in a drying cabinet at 50° C. The plates are then examined visually using an overhead microscope (Plaque multiplier from Technomara). Using the test plates, the following data can be determined: • CC50 (NHDF)=substance concentration in μM where, compared to the untreated cell control, no cytostatic effects on the cells are evident; • EC50 (HCMV)=substance concentration in μM where the CPE (cytopathic effect) is inhibited by 50% compared to the untreated virus control; • SI (selectivity index)=CC50 (NHDF)/EC50 (HCMV). In vivo Action: HCMV Xenograft Gelfoam® Model: Animals: […]

Series [2] relates to human cytomegalovirus (HCMV). Nature of the series: Anti-HCMV (anti-human cytomegalovirus) cytopathogenicity test. The class given is cell-based. Conditions: for EC50: Human betaherpesvirus 5, 144 h, HCMV-infected NHDF cells, M.O.I. 0.001-0.002, 6 days, 50% inhibition of CPE; for SI HCMV: selectivity index = CC50 (NHDF)/EC50 (HCMV). The procedure:
as §1

Series [3] deals with Human cytomegalovirus (HCMV), DavisSmith strain. Put plainly: HCMV xenograft Gelfoam model. Conditions: perorally three times a day for 8 days, SCID mice, HCMV-infected NHDF cells in Gelfoam sponge. It counts as in vivo, immunodeficient mice. The text has this:
Female immunodeficient mice (16-18 g), Fox Chase SCID or Fox Chase SCID-NOD or SCID-beige, 3-4 weeks old, are obtained from commercial breeders (Bomholtgaard, Jackson). The animals are kept under sterile conditions (including litter and feed) in isolation units.
Human cytomegalovirus (HCMV), DavisSmith strain, is cultivated in vitro on embryonal human dermal fibroblasts (NHDF cells). Following infection of the NHDF cells with a multiplicity of infection (M.O.I.) of 0.01, the virus-infected cells are harvested after 5-7 days and, in the presence of minimal essential medium (MEM), 10% fetal calf serum (FCS) with 10% DMSO, stored at −40° C. Following serial dilution of the virus-infected cells in steps of ten, the titer is determined on 24-well plates of confluent NHDF cells after vital stain with Neutral Red.
Collagen sponges (Gelfoam®; from Peasel & Lorey, order No. 40734; K. T. Chong et al., Abstracts of 39th Interscience Conference on Antimicrobial Agents and Chemotherapy, 1999, p. 439) of a size of 1×1×1 cm are initially wetted with phosphate-buffered saline (PBS), the enclosed air bubbles are removed by degassing and the sponges are then stored in MEM+10% FCS. […] What is determined is the number of infectious virus particles after substance treatment compared to the placebo-treated control group.

The molecule `CC1(C)CC(=O)NN=C1c1cccc(NC(=O)Nc2ccc(F)cc2F)c1` [Example 1, N-(2,4-Difluorophenyl)-N′-[3-(4,4-dimethyl-6-oxo-1,4,5,6-tetrahydro-3-pyridazinyl)-phenyl]urea] registered a melting point of 213 °C. The molecule further registered a CC50 at 6 days in series [1] of 125 µM. Moreover, in series [2], the half-maximal effective concentration (EC50) worked out at 0.96 µM and the “SI HCMV” value is 130. The “Murine xenograft model ED50 t.i.d.” value in series [3] is recorded as 18 mg]kg.

For `CC1(C)CC(=O)NN=C1c1cccc(NC(=O)Nc2ccc(F)c(Cl)c2)c1` [Example 2, N-(3-Chloro-4-fluorophenyl)-N′-[3-(4,4-dimethyl-6-oxo-1,4,5,6-tetrahydro-3-pyridazinyl)phenyl]urea], in series [1], half-maximal cytotoxicity (CC50 at 6 days) was put at 23 µM. Also, in series [2], the EC50 came out at 0.07 µM and the “SI HCMV” value amounted to 329.

With `CC1(C)CC(=O)NN=C1c1cccc(NC(=O)Nc2cccc(Br)c2)c1` [Example 3, N-(3-Bromophenyl)-N′-[3-(4,4-dimethyl-6-oxo-1,4,5,6-tetrahydro-3-pyridazinyl)-phenyl]urea], the melting point is 207 °C. The same molecule came in with a CC50 at 6 days in series [1] of 24 µM. In addition, in series [2], the EC50 came to 0.13 µM and the “SI HCMV” value worked out at 185.

`Cc1cc(Cl)ccc1NC(=O)Nc1cccc(C2=NNC(=O)CC2(C)C)c1` [Example 4, N-(4-Chloro-2-methylphenyl)-N′-[3-(4,4-dimethyl-6-oxo-1,4,5,6-tetrahydro-3-pyridazinyl)phenyl]urea] registered a melting point of 232 °C. Moreover, the 50% cytotoxic concentration (CC50) at 6 days in series [1] is > 23 µM. Besides, in series [2], the EC50 stood at 0.15 µM and the “SI HCMV” value was >153. Further, the “Murine xenograft model ED50 t.i.d.” value in series [3] turned out to be 8 mg]kg.

On to `CC1(C)CC(c2ccccc2NC(=O)Nc2ccc(F)cc2F)=NNC1=O` [Example 5, N-(2,4-Difluorophenyl)-N′-[2-(5,5-dimethyl-6-oxo-1,4,5,6-tetrahydro-3-pyridazinyl)-phenyl]urea], for which, in series [1], the CC50 at 6 days came out at 125 µM. Besides, in series [2], the EC50 stood at 6.1 µM and the “SI HCMV” value is recorded as 21.

Molecule `CC1(C)CC(c2cccc(NC(=O)Nc3ccc(F)c(F)c3)c2)=NNC1=O` [Example 6, N-(3,4-Difluorophenyl)-N′-[3-(5,5-dimethyl-6-oxo-1,4,5,6-tetrahydro-3-pyridazinyl)-phenyl]urea] showed a melting point of 200 °C.

The values are drawn from US20050059658A1, “Pyridazinone” (priority 2001, published 2005).
